Values after ≈ are worked out from the molar mass of the structure shown. Blank lines part the entries; values can stand above or below the molecule they belong to.
Assays:
Experiment in all cases: ≥ marks a high value that may be exact or a test limit, other limits are often not marked, values filed in µg/mL are converted to µM
[1] = tested on: Pseudomonas syringae EPS 94
[2] = tested on: Fusarium oxysporum f. sp. lycopersici ATCC 201829
[3] = tested on: Erwinia amylovora PMV 6076
[4] = tested on: Rhizopus stolonifer CECT 2344
[5] = tested on: Penicillium expansum EPS 26
[6] = tested on: Xanthomonas vesicatoria 2133-2
[7] = tested on: Aspergillus niger CECT 2694
[8] = tested on: Staphylococcus aureus ATCC 9144
[9] = tested on: Staphylococcus aureus 5118
[10] = tested on: Staphylococcus aureus E4049
[11] = tested on: Vibrio alginolyticus KCCM 2928
[12] = tested on: Vibrio vulnificus KCTC 2982
[13] = tested on: Vibrio ordalii KCCM 41669
[14] = tested on: Streptococcus iniae FP5228
[15] = tested on: Vibrio campbellii KCCM 40684
[16] = tested on: Escherichia coli JM109
[17] = tested on: Vibrio harveyi ATCC 14126
[18] = tested on: Edwardsiella tarda
[19] = tested on: Pseudomonas putida NCIM 2102
[20] = tested on: Bacillus subtilis
[21] = tested on: Staphylococcus aureus 8530
[22] = tested on: Escherichia coli W160-37
[23] = tested on: Edwardsiella tarda FP4130
[24] = tested on: Aeromonas salmonicida RFAS1
[25] = tested on: Pseudomonas aeruginosa 1570
[26] = tested on: Pseudomonas aeruginosa 5167
[27] = tested on: Staphylococcus aureus LAC
[28] = tested on: Escherichia coli ATCC 25922
[29] = tested on: Pseudomonas aeruginosa ATCC 27853
[30] = tested on: Escherichia coli CCARM 1238
[31] = tested on: Staphylococcus aureus CCARM 3518
[32] = tested on: Pseudomonas aeruginosa 4891
[33] = tested on: Candida albicans KCTC 7270
[34] = tested on: Escherichia coli CCARM 1229
[35] = tested on: Pseudomonas aeruginosa 4007
[36] = tested on: Listeria monocytogenes KCTC 3710
[37] = tested on: Trichosporon beigelii KCTC 7707
[38] = tested on: Staphylococcus aureus ATCC 25923
[39] = tested on: Staphylococcus aureus CCARM 3090
[40] = tested on: Salmonella typhimurium KCTC 1926
[41] = tested on: Bacillus subtilis KCTC 1998

Compound: CSCC[C@H](NC(=O)[C@@H](NC(=O)[C@H](Cc1ccccc1)NC(=O)[C@H](CC(C)C)NC(=O)[C@H](CC(C)C)NC(=O)[C@@H](NC(=O)[C@H](C)NC(=O)[C@@H](N)CC(C)C)[C@@H](C)O)[C@@H](C)O)C(=O)N[C@@H](CS)C(=O)N[C@@H](CC(C)C)C(=O)N[C@@H](CC(N)=O)C(=O)N[C@@H](Cc1ccccc1)C(=O)N[C@@H](CS)C(=O)NCC(=O)N[C@H](C(=O)N[C@@H](CC(C)C)C(=O)N[C@@H](C)C(=O)NCC(=O)N[C@@H](CC(=O)O)C(=O)N[C@@H](CC(=O)O)C(=O)O)C(C)C [LATLLFTMCLNFCGVLAGDD]
- MIC [8]: ≥ 125 µM
- MIC [9]: 3.78 µM (≈ 8 µg/mL)
- MIC [10]: 15.6 µM (≈ 33 µg/mL)

Compound: CC[C@H](C)[C@H](NC(=O)[C@H](CC(C)C)NC(=O)[C@H](CCCN=C(N)N)NC(=O)[C@H](Cc1cnc[nH]1)NC(=O)[C@@H](NC(=O)[C@@H](NC(=O)[C@H](CCCCN)NC(=O)CNC(=O)[C@@H](NC(=O)CNC(=O)[C@@H](NC(=O)[C@H](CC(C)C)NC(=O)CNC(=O)[C@H](CC(N)=O)NC(=O)[C@H](Cc1ccccc1)NC(=O)[C@@H](NC(=O)[C@H](Cc1cnc[nH]1)NC(=O)[C@H](Cc1cnc[nH]1)NC(=O)[C@H](Cc1ccccc1)NC(=O)[C@@H](N)Cc1ccccc1)[C@@H](C)CC)C(C)C)C(C)C)[C@@H](C)O)[C@@H](C)CC)C(=O)O [FFHHIFNGLVGVGKTIHRLI]
- MIC [11]: 0.9 µM (≈ 2.08 µg/mL)
- MIC [12]: 2.72 µM (≈ 6.28 µg/mL)
- MIC [13]: ≥ 1000 µM
- MIC [14]: 1.9 µM (≈ 4.38 µg/mL)
- MIC [15]: 0.9 µM (≈ 2.08 µg/mL)
- MIC [16]: 2.72 µM (≈ 6.28 µg/mL)
- MIC [17]: 0.9 µM (≈ 2.08 µg/mL)
- MIC [18]: 11 µM (≈ 25.4 µg/mL)

Compound: CC[C@H](C)[C@H](NC(=O)[C@H](CC(C)C)NC(=O)[C@H](CCCCN)NC(=O)[C@H](CCCCN)NC(=O)[C@H](CC(C)C)NC(=O)CN)C(=O)N[C@@H](CO)C(=O)N[C@@H](Cc1c[nH]c2ccccc12)C(=O)N[C@H](C(=O)N[C@@H](CCCCN)C(=O)N[C@@H](CCCN=C(N)N)C(=O)N[C@@H](C)C(=O)N[C@@H](C)C(=O)N[C@@H](CCC(N)=O)C(=O)N[C@@H](CCC(N)=O)C(=O)NCC(N)=O)[C@@H](C)CC [GLKKLISWIKRAAQQG]
- MIC [19]: 30.5 µM (≈ 54.7 µg/mL)
- MIC [20]: 1.57 µM (≈ 2.83 µg/mL)
- MIC [21]: 3.93 µM (≈ 7.07 µg/mL)
- MIC [22]: 6.81 µM (≈ 12.2 µg/mL)

Compound: CC(C)C[C@H](NC(=O)[C@H](CCCN=C(N)N)NC(=O)CNC(=O)[C@H](Cc1ccccc1)NC(=O)[C@@H](N)Cc1ccccc1)C(=O)N[C@@H](CCCCN)C(=O)N[C@@H](C)C(=O)N[C@H](C(=O)N[C@@H](Cc1ccccc1)C(=O)N[C@@H](CCCN=C(N)N)C(=O)NCC(=O)N[C@@H](C)C(=O)N[C@@H](CCCN=C(N)N)C(=O)N[C@@H](CCC(N)=O)C(=O)NCC(=O)N[C@@H](Cc1c[nH]c2ccccc12)C(=O)N[C@@H](CCCCN)C(=O)N[C@@H](CCC(=O)O)C(=O)N[C@@H](Cc1cnc[nH]1)C(=O)N[C@@H](CCCN=C(N)N)C(=O)N[C@@H](Cc1ccc(O)cc1)C(=O)O)C(C)C [FFGRLKAVFRGARQGWKEHRY]
- MIC [11]: 0.5 µM (≈ 1.31 µg/mL)
- MIC [23]: 15.6 µM (≈ 40.7 µg/mL)
- MIC [13]: 15.6 µM (≈ 40.7 µg/mL)
- MIC [14]: 7.8 µM (≈ 20.4 µg/mL)
- MIC [24]: 7.8 µM (≈ 20.4 µg/mL)
- MIC [17]: 0.5 µM (≈ 1.31 µg/mL)

Compound: CC(C)C[C@H](NC(=O)[C@H](CC(C)C)NC(=O)[C@H](CCCCN)NC(=O)[C@H](CCCCN)NC(=O)[C@H](CC(C)C)NC(=O)[C@H](C)NC(=O)[C@H](CCCCN)NC(=O)[C@H](CC(C)C)NC(=O)[C@@H](N)Cc1ccccc1)C(N)=O [FLKALKKLL]
- MIC [25]: 10.5 µM (≈ 11.3 µg/mL)
- MIC [26]: ≥ 119 µM

Compound: C[C@H](N)C(=O)N[C@@H](C)C(=O)N[C@@H](C)C(=O)N[C@@H](C)C(=O)N[C@@H](CCCN=C(N)N)C(=O)N[C@@H](CCCN=C(N)N)C(=O)N[C@@H](CCCN=C(N)N)C(=O)N[C@@H](CCCN=C(N)N)C(=O)O [AAAARRRR]
- MIC [27]: ≥ 138 µM
- MIC [28]: > 138 µM

The remaining lines, values ahead:

- MIC [1]: 3.16 µM (≈ 4.68 µg/mL)
- MIC [2]: 0.849 µM (≈ 1.25 µg/mL)
- MIC [3]: 3.16 µM (≈ 4.68 µg/mL)
- MIC [4]: ≥ 35.4 µM
- MIC [5]: 22.4 µM (≈ 33.1 µg/mL)
- MIC [6]: 3.16 µM (≈ 4.68 µg/mL)
- MIC [7]: 17.3 µM (≈ 25.6 µg/mL)
Compound: CC[C@H](C)[C@H](NC(=O)[C@H](CCCCN)NC(=O)[C@H](CCCCN)NC(=O)[C@H](Cc1ccccc1)NC(=O)[C@H](CC(C)C)NC(=O)[C@H](CCCCN)NC(=O)[C@@H](N)Cc1c[nH]c2ccccc12)C(=O)N[C@@H](CC(C)C)C(=O)N[C@@H](CCCCN)C(=O)N[C@@H](Cc1ccc(O)cc1)C(=O)N[C@@H](CC(C)C)C(N)=O [WKLFKKILKYL]

- MIC [29]: 16 µM (≈ 47 µg/mL)
- MIC [30]: ≥ 32 µM
- MIC [31]: ≥ 32 µM
- MIC [32]: ≥ 64 µM
- MIC [33]: ≥ 32 µM
- MIC [34]: ≥ 32 µM
- MIC [35]: ≥ 64 µM
- MIC [36]: ≥ 32 µM
- MIC [37]: ≥ 32 µM
- MIC [38]: 32 µM (≈ 93.9 µg/mL)
- MIC [39]: ≥ 32 µM
- MIC [40]: 16 µM (≈ 47 µg/mL)
- MIC [41]: ≥ 32 µM
- MIC [28]: 16 µM (≈ 47 µg/mL)
Compound: CC[C@H](C)[C@H](NC(=O)CNC(=O)[C@H](CCC(N)=O)NC(=O)[C@H](Cc1ccccc1)NC(=O)[C@@H](NC(=O)[C@H](CCCCN)NC(=O)[C@H](CCCCN)NC(=O)[C@H](CC(C)C)NC(=O)[C@H](C)NC(=O)[C@H](CC(N)=O)NC(=O)[C@H](CC(C)C)NC(=O)[C@@H](N)Cc1c[nH]c2ccccc12)C(C)C)C(=O)N[C@@H](Cc1cnc[nH]1)C(=O)N[C@@H](CCC(=O)O)C(=O)N[C@@H](C)C(=O)N[C@H](C(=O)N[C@@H](CCCCN)C(=O)N[C@@H](CC(C)C)C(=O)N[C@H](C(=O)N[C@@H](Cc1c[nH]c2ccccc12)C(=O)N[C@@H](CC(N)=O)C(=O)N[C@@H](Cc1c[nH]c2ccccc12)C(=O)N[C@H](C(=O)N[C@@H](CCC(N)=O)C(N)=O)C(C)C)[C@@H](C)CC)[C@@H](C)CC [WLNALKKVFQGIHEAIKLIWNWVQ]
